Source: patent publication US7842685B2, “S1P1 receptor agonists and use thereof” (Amgen Inc., priority 2008, dated 2010)
Where a name gives a salt, the structure may show the parent alone.

Target: T1, hS1P1 receptor (Homo sapiens, UniProt P21453)
T1 construct: host or cells: U2OS
Test: hS1P1 receptor internalization assay (cell imaging-based, hS1P1-eGFP U2OS cells)
Settings: U2OS cell line expressing hS1P1-eGFP, compounds incubated at 37° C. for one hour; for Emax: 1 h, efficacy (Max), read-out: hS1P1 Receptor Internalization (biolimaging) Max (%); for EC50: GFP-containing endosomes per cell (ArrayScan), read-out: hS1P1 Receptor Internalization (bioimaging) EC50 IP
Procedure: The activity of compounds of the invention was determined by a cell imaging-based assay measuring the degree of hS1P1 receptor internalization and a Ca^2+ mobilization assay measuring the level of S1P receptor activation. The receptor internalization assay was employed to determine the potency and efficacy of compounds on hS1P1 receptor, while Ca^2+ mobilization assay was used to determine selectivity among different S1P receptors and activity on S1P receptors from species such as rat, dog, and cyno. The hS1P1 receptor internalization assay was performed using a U2OS cell line expressing hS1P1-eGFP chimeric protein (Thermo Scientific, Soeborg, Denmark). Upon compound treatment, the hS1P1 receptor was internalized in cytoplasma and formed GFP-containing-endosomes. This event was detected by an automated microscope, ArrayScan (Thermo Scientific Cellomics, Pittsburg), and the degree of receptor internalization is quantitated by counting green fluorescent GFP-containing endosomes per cell. In this assay, hS1P1-eGFP expressing U2OS cells were starved in serum free media for two hours prior to compound treatment. Then compounds were incubated with the starved cells at 37° C. for one hour. Subsequently, compound-treated cells were fixed using 4% formaldehyde, and the nuclei were stained using Hoechst. Then the cells were imaged in ArrayScan. The potency and efficacy of the compounds were determined by plotting the number of green fluorescent GFP-containing endosomes per cell against corresponding compound concentration.

T1 sequence (P21453 whole entry): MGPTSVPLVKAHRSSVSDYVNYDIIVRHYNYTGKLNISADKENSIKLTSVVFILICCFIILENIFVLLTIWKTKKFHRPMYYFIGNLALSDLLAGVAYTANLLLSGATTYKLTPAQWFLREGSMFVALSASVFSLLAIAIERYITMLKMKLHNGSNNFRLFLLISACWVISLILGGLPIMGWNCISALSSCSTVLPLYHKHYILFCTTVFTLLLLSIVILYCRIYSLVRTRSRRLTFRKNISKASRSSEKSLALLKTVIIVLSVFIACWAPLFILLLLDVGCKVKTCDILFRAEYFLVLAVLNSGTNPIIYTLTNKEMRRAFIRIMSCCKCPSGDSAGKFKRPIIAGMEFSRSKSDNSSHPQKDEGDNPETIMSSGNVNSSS

Row | Compound | Emax [%] | EC50 [nM]
1 | O=C(NC1CC1)c1ccc(-c2nc3ccc(C4(c5ccccc5)CC4)nc3s2)c(F)c1 [Example 113, N-cyclopropyl-3-fluoro-4-(5-(1-phenylcyclopropyl)[1,3]thiazolo[5,4-b]pyridin-2-yl)benzamide] | 55 | 732
2 | O=C(Nc1ccc(-c2nc3ccc(C4(c5ccccc5)CC4)nc3s2)c(F)c1)C(F)(F)F [Example 118, 2,2,2-trifluoro-N-(3-fluoro-4-(5-(1-phenylcyclopropyl)[1,3]thiazolo[5,4-b]pyridin-2-yl)phenyl)acetamide] | 111 | 298
3 | CNc1ccc(-c2nc3ccc(C4(c5ccccc5)CC4)nc3s2)c(F)c1 [Example 121, 3-fluoro-N-methyl-4-(5-(1-phenylcyclopropyl)[1,3]thiazolo[5,4-b]pyridin-2-yl)aniline] | 125 | 777
4 | O=C(O)CCS(=O)(=O)Nc1ccc(-c2nc3ccc(C4(c5ccccc5)CC4)nc3s2)c(F)c1 [Example 124, 3-((3-fluoro-4-(5-(1-phenylcyclopropyl)[1,3]thiazolo[5,4-b]pyridin-2-yl)phenyl)sulfamoyl)propanoic acid] | 131 | 946
5 | N[C@H](CC(=O)O)C(=O)Nc1ccc(-c2nc3ccc(C4(c5ccccc5)CC4)nc3s2)c(F)c1 [Example 126, N-(3-fluoro-4-(5-(1-phenylcyclopropyl)[1,3]thiazolo[5,4-b]pyridin-2-yl)phenyl)-D-alpha-asparagine TFA salt] | 100 | 0.6
6 | O=C(O)[C@H]1C[C@@H](Nc2ccc(-c3nc4ccc(C5(c6ccccc6)CC5)nc4s3)c(F)c2)C1 [Example 130, cis-3-((3-fluoro-4-(5-(1-phenylcyclopropyl)[1,3]thiazolo[5,4-b]pyridin-2-yl)phenyl)amino)cyclobutanecarboxylic acid] | 89 | 11.6
7 | O=C(O)C[C@H](O)C(=O)Nc1ccc(-c2nc3ccc(C4(c5ccccc5)CC4)nc3s2)c(F)c1 [Example 133, (3S)-4-(3-fluoro-4-(5-(1-phenylcyclopropyl)thiazolo[5,4-b]pyridin-2-yl)phenylamino)-3-hydroxy-4-oxobutanoic acid] | 133 | 2.2
8 | c1ccc(C2(c3ccc4nc(-c5ccc6[nH]ccc6c5)sc4n3)CC2)cc1 [Example 136, 2-(1H-indol-5-yl)-5-(1-phenylcyclopropyl)thiazolo[5,4-b]pyridine] | 101 | 191
9 | CC(=O)NCCc1ccc(-c2nc3ccc(C4(c5ccccc5)CC4)nc3s2)c(F)c1 [Example 150, N-(2-(3-fluoro-4-(5-(1-phenylcyclopropyl)[1,3]thiazolo[5,4-b]pyridin-2-yl)phenyl)ethyl)acetamide] | 155 | 184
